In data set [1] the test system is Candida albicans. The data set is described as follows: Antifungal activity against Candida albicans ATCC 90028 at 32 ug/ml measured after 24 hrs by resazurin dye based assay. The data set is classed as functional. The settings on record: dose 32 µg/ml.
The test system of data set [2] is Candida albicans. As to the kind of experiment: Antifungal activity against Candida albicans ATCC 90028 measured after 24 hrs by resazurin dye based assay. Format: functional.
Data set [3] can be described thus: Cytotoxicity against HEK293 cells measured after 20 hrs by resazurin dye based fluorescence assay. Format: cell-based. The note with it: human.
Data set [4] deals with Acinetobacter baumannii. The data set is described as follows: Antibacterial activity against Acinetobacter baumannii ATCC 19606 at 32 ug/ml measured after 18 hrs. Format: functional, ATCC 19606 = CIP 70.34 = JCM 6841. The note with it: dose 32 µg/ml.
The test system of data set [5] is Escherichia coli. As to the kind of experiment: Antibacterial activity against Escherichia coli ATCC 25922 measured after 18 hrs. The data set is classed as functional.
Data set [6] has as its system Klebsiella pneumoniae. The data set is described as follows: Antibacterial activity against Klebsiella pneumoniae ATCC 700603 measured after 18 hrs. The data set is classed as functional.
In data set [7] the test system is Staphylococcus aureus. As to the kind of experiment: Antibacterial activity against methicillin resistant Staphylococcus aureus ATCC 43300 at 32 ug/ml measured after 18 hrs. The settings on record: dose 32 µg/ml. Format: functional.
In data set [8] the test system is Pseudomonas aeruginosa. The data set is described as follows: Antibacterial activity against Pseudomonas aeruginosa ATCC 27853 measured after 18 hrs. Format: functional.
Data set [9] relates to Escherichia coli. As to the kind of experiment: Antibacterial activity against Escherichia coli ATCC 25922 at 32 ug/ml measured after 18 hrs. Format: functional. The settings on record: dose 32 µg/ml.
The test system of data set [10] is Pseudomonas aeruginosa. As to the kind of experiment: Antibacterial activity against Pseudomonas aeruginosa ATCC 27853 at 32 ug/ml measured after 18 hrs. The data set is classed as functional. The note with it: dose 32 µg/ml.
The subject of data set [11] is Acinetobacter baumannii. As to the kind of experiment: Antibacterial activity against Acinetobacter baumannii ATCC 19606 measured after 18 hrs. The note with it: ATCC 19606 = CIP 70.34 = JCM 6841. The data set is classed as functional.
Data set [12] has as its system Cryptococcus neoformans. The data set is described as follows: Antifungal activity against Cryptococcus neoformans ATCC 208821 at 32 ug/ml measured after 24 hrs by resazurin dye based assay. The note with it: dose 32 µg/ml. Format: functional.
For data set [13], the system named is Cryptococcus neoformans. As to the kind of experiment: Antifungal activity against Cryptococcus neoformans ATCC 208821 measured after 24 hrs by resazurin dye based assay. Format: functional.
Data set [14] relates to Staphylococcus aureus. The data set is described as follows: Antibacterial activity against methicillin resistant Staphylococcus aureus ATCC 43300 measured after 18 hrs. The data set is classed as functional.
In data set [15] the test system is Klebsiella pneumoniae. The data set is described as follows: Antibacterial activity against Klebsiella pneumoniae ATCC 700603 at 32 ug/ml measured after 18 hrs. The data set is classed as functional. The settings on record: dose 32 µg/ml.

Activity, MIC and CC50 data for six compounds are collected here from ChEMBL document CHEMBL4765364, “Synthesis, antibacterial and antifungal activity of new 3-biphenyl-3H-Imidazo[1,2-a]azepin-1-ium bromides” (Eur J Med Chem, 2020).

Some results are limits rather than exact numbers.

With `COc1ccc([N+]2=C3CCCCCN3C(O)(c3ccc(-c4ccccc4)cc3)C2)cc1.[Br-]` (stereo not given), the Activity in data set [1], in data set [4], in data set [7], in data set [9], in [10] and in [12] was greater than 80% each time. Further, the Activity in [15] was greater than 80%. Also, the MIC in data set [2] was greater than 32 µg/mL; in data set [5] it was greater than 32 µg/mL; in data set [6], greater than 32 µg/mL; in data set [8], greater than 32 µg/mL; in [11] it was greater than 32 µg/mL; in data set [13], 32 µg/mL. The compound also came in with an MIC in data set [14] of 16 µg/mL. The midpoint of cytotoxicity in data set [3], the CC50 at 20 h, lay at 2.6 µg/mL.
Consider `COc1ccc([N+]2=C3CCCCCN3C(O)(c3ccc(-c4ccccc4)cc3)C2)c(OC)c1.[Br-]` (stereo not given), for which the Activity in data set [1], in [4], in data set [7], in data set [9], in data set [10] and in data set [12] was greater than 80% each time. Further, the Activity in [15] was greater than 80%. The minimum inhibitory concentration (MIC) in [2] is greater than 32 µg/mL; in data set [5] it was greater than 32 µg/mL; in [6], greater than 32 µg/mL; in data set [8], 32 µg/mL; in data set [11], greater than 32 µg/mL; in data set [13], 32 µg/mL. The MIC in data set [14] was 8 µg/mL. This compound returned a half-maximal cytotoxic concentration (CC50) at 20 h in data set [3] of 2.4 µg/mL.
Turning to `Cc1ccc(-[n+]2cc(-c3ccc(-c4ccccc4)cc3)n3c2CCCCC3)cc1.[Br-]`, the Activity in [1], in [4], in [7], in [9], in data set [10] and in data set [12] was greater than 80% in each case. In [15], this compound returned an Activity greater than 80%. For the same compound, the MIC in data set [2] was 8 µg/mL; in data set [5] it was greater than 32 µg/mL; in data set [6] it was greater than 32 µg/mL; in [8] it was greater than 32 µg/mL; in data set [11], greater than 32 µg/mL; in data set [13], 16 µg/mL. The MIC in data set [14] is 8 µg/mL. In data set [3], this compound had a CC50 at 20 h of 2.1 µg/mL.
As to `OC1(c2ccc(-c3ccccc3)cc2)C[N+](c2ccc3c(c2)OCO3)=C2CCCCCN21.[Br-]` (stereo not given), the Activity in [1], in data set [4], in data set [7], in data set [9], in data set [10] and in data set [12] was greater than 80% each time. The same compound registered an Activity in data set [15] greater than 80%. The MIC in [2], in [5], in data set [6], in data set [8], in data set [11] and in data set [13] was greater than 32 µg/mL throughout. Further, the MIC in [14] came to 32 µg/mL. The compound also had a CC50 at 20 h in [3] of 4.5 µg/mL.
For `COc1ccccc1[N+]1=C2CCCCCN2C(O)(c2ccc(-c3ccccc3)cc2)C1.[Br-]` (stereo not given), the Activity in data set [1], in data set [4], in [7], in [9], in data set [10] and in data set [12] was greater than 80% each time. Also, in [15], the Activity was greater than 80%. The MIC was 32 µg/mL in data set [2]; greater than 32 µg/mL in data set [5]; greater than 32 µg/mL in data set [6]; greater than 32 µg/mL in [8]; greater than 32 µg/mL in data set [11]; 8 µg/mL in [13]. The compound also yielded an MIC in [14] of 16 µg/mL. Further, in data set [3], half-maximal cytotoxicity (CC50 at 20 h) was put at 2.2 µg/mL.
As for `CCc1ccc(-[n+]2cc(-c3ccc(-c4ccccc4)cc3)n3c2CCCCC3)cc1.[Br-]`, the Activity in data set [1], in [4], in [7], in [9], in [10] and in data set [12] was greater than 80% in each case. Further, in data set [15], the Activity was greater than 80%. Moreover, the MIC in [2] is 4 µg/mL; in data set [5], greater than 32 µg/mL; in [6] it was greater than 32 µg/mL; in [8], 32 µg/mL; in [11] it was greater than 32 µg/mL; in data set [13] it was 8 µg/mL. 4 µg/mL was the least that counted as inhibitory in data set [14] (MIC). Also, the cytotoxic concentration (CC50) at 20 h in data set [3] amounted to 1.4 µg/mL.
